System: recRSV-A2-L19FD489E-fireSMASh
Experiment: not given
Format: cell-based, respiratory syncytial virus
Conditions: not given

Row | Compound | improvement in antiviral potency compared to hit compound 1a
1 | Cc1ccoc1C(=O)N1CCCn2nc(C(=O)Nc3ccc(F)cc3F)cc2C1 [Compound 8c, N-(2,4-difluorophenyl)-5-(3-methylfuran-2-carbonyl)-5,6,7,8-tetrahydro-4H-pyrazolo[1,5-a][1,4]diazepine-2-carboxamide] | approximately 4 fold
2 | Cc1ccoc1C(=O)N1CCCn2nc(C(=O)Nc3ccccc3F)cc2C1 [Compound 8g, N-(2-fluorophenyl)-5-(3-methylfuran-2-carbonyl)-5,6,7,8-tetrahydro-4H-pyrazolo[1,5-a][1,4]diazepine-2-carboxamide] | approximately 4 fold
3 | Cc1ccoc1C(=O)N1CCCn2nc(C(=O)Nc3ccc(F)cc3Cl)cc2C1 [Compound 8n, N-(2-chloro-4-fluorophenyl)-5-(3-methylfuran-2-carbonyl)-5,6,7,8-tetrahydro-4H-pyrazolo[1,5-a][1,4]diazepine-2-carboxamide] | approximately 4 fold

Same assay, conditions: SAR discussion

Row | Compound | antiviral (anti-RSV) activity in words
4 | 5-(4-Methylisoxazole-5-carbonyl)-N-phenyl-5,6,7,8-tetrahydro-4H-pyrazolo[1,5-a][1,4]diazepine-2-carboxamide [Compound 1q] | complete loss of potency
5 | 5-(4-Methyloxazole-5-carbonyl)-N-phenyl-5,6,7,8-tetrahydro-4H-pyrazolo[1,5-a][1,4]diazepine-2-carboxamide [Compound 1r] | complete loss of potency
6 | Cc1ccsc1C(=O)N1CCCn2nc(C(=O)Nc3ccccc3)cc2C1 [Compound 1c, 5-(3-Methylthiophene-2-carbonyl)-N-phenyl-5,6,7,8-tetrahydro-4H-pyrazolo[1,5-a][1,4]diazepine-2-carboxamide] | complete loss of potency
7 | Cc1cc[nH]c1C(=O)N1CCCn2nc(C(=O)Nc3ccccc3)cc2C1 [Compound 1d, 5-(3-Methyl-1H-pyrrole-2-carbonyl)-N-phenyl-5,6,7,8-tetrahydro-4H-pyrazolo[1,5-a][1,4]diazepine-2-carboxamide] | complete loss of potency
8 | Cc1ccn(C)c1C(=O)N1CCCn2nc(C(=O)Nc3ccccc3)cc2C1 [Compound 1e, 5-(1,3-Dimethyl-1H-pyrrole-2-carbonyl)-N-phenyl-5,6,7,8-tetrahydro-4H-pyrazolo[1,5-a][1,4]diazepine-2-carboxamide] | complete loss of potency
9 | O=C(Nc1ccccc1)c1cc2n(n1)CCCN(C(=O)c1occc1-c1ccccc1)C2 [Compound 1h, N-phenyl-5-(3-phenylfuran-2-carbonyl)-5,6,7,8-tetrahydro-4H-pyrazolo[1,5-a][1,4]diazepine-2-carboxamide] | lacked appreciable inhibitory activity
10 | Cc1c(C(=O)N2CCCn3nc(C(=O)Nc4ccccc4)cc3C2)oc2ccccc12 [Compound 1i, 5-(3-Methylbenzofuran-2-carbonyl)-N-phenyl-5,6,7,8-tetrahydro-4H-pyrazolo[1,5-a][1,4]diazepine-2-carboxamide] | complete loss of potency
11 | O=C(Nc1ccccc1)c1cc2n(n1)CCCN(C(=O)c1occc1C(F)(F)F)C2 [Compound 1j, N-phenyl-5-(3-(trifluoromethyl)furan-2-carbonyl)-5,6,7,8-tetrahydro-4H-pyrazolo[1,5-a][1,4]diazepine-2-carboxamide] | negative impacts on the potency
12 | CCc1ccoc1C(=O)N1CCCn2nc(C(=O)Nc3ccccc3)cc2C1 [Compound 1k, 5-(3-Ethylfuran-2-carbonyl)-N-phenyl-5,6,7,8-tetrahydro-4H-pyrazolo[1,5-a][1,4]diazepine-2-carboxamide] | negative impacts on the potency
13 | Cc1cc(C(=O)N2CCCn3nc(C(=O)Nc4ccccc4)cc3C2)oc1C [Compound 1n, 5-(4,5-Dimethylfuran-2-carbonyl)-N-phenyl-5,6,7,8-tetrahydro-4H-pyrazolo[1,5-a][1,4]diazepine-2-carboxamide] | lacked antiviral activity
14 | Cc1coc(C(=O)N2CCCn3nc(C(=O)Nc4ccccc4)cc3C2)c1 [Compound 1o, 5-(4-Methylfuran-2-carbonyl)-N-phenyl-5,6,7,8-tetrahydro-4H-pyrazolo[1,5-a][1,4]diazepine-2-carboxamide] | loss of activity
15 | Cc1ccc(C(=O)N2CCCn3nc(C(=O)Nc4ccccc4)cc3C2)o1 [Compound 1p, 5-(5-Methylfuran-2-carbonyl)-N-phenyl-5,6,7,8-tetrahydro-4H-pyrazolo[1,5-a][1,4]diazepine-2-carboxamide] | loss of activity
16 | O=C(Nc1ccccc1)c1cc2n(n1)CCCN(C(=O)c1ccncn1)C2 [Compound 1s, N-phenyl-5-(pyrimidine-4-carbonyl)-5,6,7,8-tetrahydro-4H-pyrazolo[1,5-a][1,4]diazepine-2-carboxamide] | complete loss of potency
17 | Cc1ccoc1CN1CCCn2nc(C(=O)Nc3ccccc3)cc2C1 [Compound 1t, 5-((3-Methylfuran-2-yl)methyl)-N-phenyl-5,6,7,8-tetrahydro-4H-pyrazolo[1,5-a][1,4]diazepine-2-carboxamide] | complete loss of bioactivity
18 | O=C(Nc1ccccc1)c1cc2n(n1)CCCN(S(=O)(=O)c1ccco1)C2 [Compound 1u, 5-(Furan-2-ylsulfonyl)-N-phenyl-5,6,7,8-tetrahydro-4H-pyrazolo[1,5-a][1,4]diazepine-2-carboxamide] | complete loss of bioactivity
19 | Cc1ccoc1C(=O)N1CCCn2nc(C(=O)N(C)c3ccccc3)cc2C1 [Compound 8a, N-methyl-5-(3-methylfuran-2-carbonyl)-N-phenyl-5,6,7,8-tetrahydro-4H-pyrazolo[1,5-a][1,4]diazepine-2-carboxamide] | loss of activity
20 | Cc1ccoc1C(=O)N1CCCn2nc(C(=O)Nc3ccc(F)cc3)cc2C1 [Compound 8i, N-(4-fluorophenyl)-5-(3-methylfuran-2-carbonyl)-5,6,7,8-tetrahydro-4H-pyrazolo[1,5-a][1,4]diazepine-2-carboxamide] | nanomolar potency
21 | COc1ccc(NC(=O)c2cc3n(n2)CCCN(C(=O)c2occc2C)C3)cc1 [Compound 8l, N-(4-methoxyphenyl)-5-(3-methylfuran-2-carbonyl)-5,6,7,8-tetrahydro-4H-pyrazolo[1,5-a][1,4]diazepine-2-carboxamide] | nanomolar potency
22 | Cc1ccoc1C(=O)N1CCCn2nc(C(=O)Nc3ccc(F)cc3Cl)cc2C1 [Compound 8n, N-(2-chloro-4-fluorophenyl)-5-(3-methylfuran-2-carbonyl)-5,6,7,8-tetrahydro-4H-pyrazolo[1,5-a][1,4]diazepine-2-carboxamide] | nanomolar potency
23 | Cc1ccoc1C(=O)N1CCCn2nc(C(=O)Cc3ccccc3)cc2C1 [Compound 8p, 1-(5-(3-Methylfuran-2-carbonyl)-5,6,7,8-tetrahydro-4H-pyrazolo[1,5-a][1,4]diazepin-2-yl)-2-phenylethanone] | retained sufficient activity
24 | Cc1ccoc1C(=O)N1CCCn2nc(CNc3ccccc3)cc2C1 [Compound 8q, (3-Methylfuran-2-yl)(2-((phenylamino)methyl)-7,8-dihydro-4H-pyrazolo[1,5-a][1,4]diazepin-5(6H)-yl)methanone] | retained sufficient activity
25 | Cc1ccoc1C(=O)N1CCCn2nc(S(=O)(=O)Nc3ccccc3)cc2C1 [Compound 8r, 5-(3-Methylfuran-2-carbonyl)-N-phenyl-5,6,7,8-tetrahydro-4H-pyrazolo[1,5-a][1,4]diazepine-2-sulfonamide] | loss of activity
26 | Cc1ccoc1C(=O)N1CCCn2nc(NC(=O)c3ccccc3)cc2C1 [Compound 8s, N-(5-(3-methylfuran-2-carbonyl)-5,6,7,8-tetrahydro-4H-pyrazolo[1,5-a][1,4]diazepin-2-yl)benzamide] | loss of activity
27 | Cc1ccoc1C(=O)N1CCCn2nc(NS(=O)(=O)c3ccccc3)cc2C1 [Compound 8t, N-(5-(3-methylfuran-2-carbonyl)-5,6,7,8-tetrahydro-4H-pyrazolo[1,5-a][1,4]diazepin-2-yl)benzenesulfonamide] | loss of activity

System: not listed separately
Experiment: Metabolic stability in mouse liver S9 fractions
Format: in vitro ADME
Conditions: in the absence of cofactors

Row | Compound | stability with mouse S9 fractions
28 | Cc1ccoc1C(=O)N1CCCn2nc(C(=O)Nc3ccccc3F)cc2C1 [Compound 8g, N-(2-fluorophenyl)-5-(3-methylfuran-2-carbonyl)-5,6,7,8-tetrahydro-4H-pyrazolo[1,5-a][1,4]diazepine-2-carboxamide] | hydrolyzed rapidly

Same assay, conditions: mouse S9 subcellular fractions

Row | Compound | improvement in half-life compared to 8g [fold]
29 | Cc1ccoc1C(=O)N1CCCn2nc(C(=O)Cc3ccccc3)cc2C1 [Compound 8p, 1-(5-(3-Methylfuran-2-carbonyl)-5,6,7,8-tetrahydro-4H-pyrazolo[1,5-a][1,4]diazepin-2-yl)-2-phenylethanone] | 2

System: not listed separately
Experiment: Metabolic stability in mouse liver microsomes
Format: in vitro ADME
Conditions: without cofactors, 2 hours

Row | Compound | stability of parent in mouse liver microsomes
30 | Cc1ccoc1C(=O)N1CCCn2nc(C(=O)Cc3ccccc3)cc2C1 [Compound 8p, 1-(5-(3-Methylfuran-2-carbonyl)-5,6,7,8-tetrahydro-4H-pyrazolo[1,5-a][1,4]diazepin-2-yl)-2-phenylethanone] | parent remained intact

System: RSV
Experiment: not given
Conditions: orally available; phase II clinical trials; cited from earlier work

Row | Compound | effect on viral load and disease symptoms
31 | CC(C)C(=O)OC[C@@]1(CCl)O[C@@H](n2ccc(N)nc2=O)[C@H](F)[C@@H]1OC(=O)C(C)C [ALS-8176, 4'-chloromethyl-2'-deoxy-3',5'-di-o-isobutyryl-2'-fluorocytidine] | decreased viral load and disease symptoms

Source: paper PMC5504085 (Journal of medicinal chemistry, 2017)
